According to the Kinase Knowledgebase extract (Sharma et al. 2016):
pIC50: −log10 of the molar value.

Biological target: CDK2 (human) (UniProt P24941)
Assay: Enzyme Assay

pIC50	Compound
> 6.00	COc1cc2nc(-c3n[nH]cc3NC(=O)c3cc(Cl)cc(N4CCN(C)CC4)c3)[nH]c2cc1OC
> 6.00	O=C(Nc1c[nH]nc1-c1nc2cc(CN3CCOCC3)ccc2[nH]1)Nc1c(F)cc(F)cc1F
> 6.00	O=C(Nc1c[nH]nc1-c1nc2cc(CN3CCOCC3)ccc2[nH]1)C1CCCO1 (configuration not stated)
> 6.00	COc1ccc(C#N)cc1C(=O)Nc1c[nH]nc1-c1nc2cc(CN3CCOCC3)ccc2[nH]1
> 6.00	O=C(CC1CC1)Nc1c[nH]nc1-c1nc2cc(CN3CCOCC3)ccc2[nH]1
> 6.00	O=C(Nc1c[nH]nc1-c1nc2cc(CN3CCOCC3)ccc2[nH]1)NN1CCCC1
> 6.00	O=C(Nc1cc(F)ccc1F)Nc1c[nH]nc1-c1nc2cc(CN3CCOCC3)ccc2[nH]1
> 6.00	O=C(Nc1ccc(F)cc1F)Nc1c[nH]nc1-c1nc2cc(CN3CCOCC3)ccc2[nH]1
> 6.00	O=C(Nc1c[nH]nc1-c1nc2cc(CN3CCOCC3)ccc2[nH]1)NN1CCOCC1
> 6.00	CN(C)NC(=O)Nc1c[nH]nc1-c1nc2cc(CN3CCOCC3)ccc2[nH]1
> 6.00	COc1ccc(Cl)cc1C(=O)Nc1c[nH]nc1-c1nc2cc(CN3CCN(C)CC3)ccc2[nH]1
> 6.00	COc1cc2nc(-c3n[nH]cc3NC(=O)c3ccoc3CN(C)C)[nH]c2cc1OC
